Data reported in US10030047B2 (Hoffmann-La Roche Inc., priority 2015, dated 2018).
Converted amounts (≈) assume the structure as drawn.

These compounds were tested on A. baumannii strain ATCC19606 (assay: Minimum inhibitory concentration (MIC) determination, microbroth dilution (CLSI)). Conditions: Acinetobacter baumannii; A. baumannii ATCC19606; CAMHB; read after 20 hours; >=80% growth inhibition; read-out: ATCC19606 MIC.
Format: cell-based
Experimental: The in vitro antimicrobial activity of the compounds was determined through microbroth minimum inhibitory concentration (MIC) methodology performed according to the Clinical and Laboratory Standard Institute guidelines (CLSI—M07-A9 Jan. 2012. Methods for Dilution Antimicrobial Susceptibility Tests for Bacteria That Grow Aerobically; Approved Standard—Ninth Edition, Clinical and Laboratory Standards Institute, Wayne/PA, US and the CLSI—M100-S24 Jan. 2014. Performance Standards for Antimicrobial Susceptibility Testing; Approved Standard—Fourth Informational Supplement, Clinical and Laboratory Standards Institute, Wayne/PA, US).
The compound stock solution was freshly prepared at 10× the required top concentration for the MIC determination, i.e. at 1280 mg/L, by reconstitution of the dry compound in 50:50 water:DMSO.
Polystyrene non-treated 96 wells microtiter plates were used for preparing panel containing compound serial twofold diluted at two times the final testing concentration (e.g. range from 64 to 0.06 μg/ml) in cation adjusted Mueller Hinton broth medium (CAMHB).
Inoculum was prepared by the “direct colony suspension method”. Colonies of A. baumannii ATCC19606 or clinical isolates were suspended in saline solution and adjusted to 0.5 McFarland, diluted 100 times in CAMHB broth and 50 μl added to each well (final concentration of cells ˜5×10^(5) CFU/ml and Final volume/well of 100 μl). Microtiter plates were sealed and incubated at 35±2° C.
MICs values were read after 20 hours of incubation and recorded as the lowest concentration of the antimicrobial that inhibits more or equal to 80% of growth of the organism as detected by the unaided eye and using a microtiter plate optical density reader (OD 600 nm).
Tables 2, 3, 4 and 5 provide the minimum inhibitory concentration (MIC) in microgram per milliliter of the compounds of present invention obtained against the A. baumannii strain ATCC19606 (Tables 2, 3, 4 and 5).

| SMILES | MIC [µg/mL] |
| --- | --- |
| Cc1ccc2c(c1)Sc1ccccc1CN[C@@H](CCCN)C(=O)N[C@@H](CCCCN)C(=O)N(C)[C@@H](Cc1c[nH]c3ccccc13)C(=O)NC2 [Example 9, (12S,15S,18S)-15-(4-Amino-butyl)-18-(3-amino-propyl)-12-(1H-indol-3-ylmethyl)-5,13-dimethyl-2-thia-10,13,16,19-tetraaza-tricyclo[19.4.0.0*3,8*]pentacosa-1(21),3,5,7,22,24-hexaene-11,14,17-trione] | 16 (≈ 23.4 µM) |
| Cc1ccc2c(c1)CNC(=O)[C@H](Cc1c[nH]c3ccccc13)N(C)C(=O)[C@H](CCCCN)NC(=O)[C@H](CCCN)NCc1ccccc1S2 [Example 10, (12S,15S,18S)-15-(4-Amino-butyl)-18-(3-amino-propyl)-12-(1H-indol-3-ylmethyl)-6,13-dimethyl-2-thia-10,13,16,19-tetraaza-tricyclo[19.4.0.0*3,8*]pentacosa-1(21),3,5,7,22,24-hexaene-11,14,17-trione] | 2 (≈ 2.92 µM) |
| CN1C(=O)[C@H](CCCCN)NC(=O)[C@H](CCCN)NCc2ccccc2Sc2c(Cl)cccc2CNC(=O)[C@@H]1Cc1c[nH]c2ccccc12 [Example 11, (12S,15S,18S)-15-(4-Amino-butyl)-18-(3-amino-propyl)-4-chloro-12-(1H-indol-3-ylmethyl)-13-methyl-2-thia-10,13,16,19-tetraaza-tricyclo[19.4.0.0*3,8*]pentacosa-1(21),3,5,7,22,24-hexaene-11,14,17-trione] | 0.5 (≈ 0.71 µM) |
| CN1C(=O)[C@H](CCCCN)NC(=O)[C@H](CCCN)NCc2ccccc2Sc2c(cccc2C(F)(F)F)CNC(=O)[C@@H]1Cc1c[nH]c2ccccc12 [Example 12, (12S,15S,18S)-15-(4-Amino-butyl)-18-(3-amino-propyl)-12-(1H-indol-3-ylmethyl)-13-methyl-4-trifluoromethyl-2-thia-10,13,16,19-tetraaza-tricyclo[19.4.0.0*3,8*]pentacosa-1(21),3,5,7,22,24-hexaene-11,14,17-trione] | 0.5 (≈ 0.678 µM) |
| CN1C(=O)[C@H](CCCCN)NC(=O)[C@H](CCCN)NCc2ccccc2Sc2cc(C(F)(F)F)ccc2CNC(=O)[C@@H]1Cc1c[nH]c2ccccc12 [Example 13, (12S,15S,18S)-15-(4-Amino-butyl)-18-(3-amino-propyl)-12-(1H-indol-3-ylmethyl)-13-methyl-5-trifluoromethyl-2-thia-10,13,16,19-tetraaza-tricyclo[19.4.0.0*3,8*]pentacosa-1(21),3,5,7,22,24-hexaene-11,14,17-trione] | 2 (≈ 2.71 µM) |
| CN1C(=O)[C@H](CCCCN)NC(=O)[C@H](CCCN)NCc2ccccc2Sc2ccc(C(F)(F)F)cc2CNC(=O)[C@@H]1Cc1c[nH]c2ccccc12 [Example 14, (12S,15S,18S)-15-(4-Amino-butyl)-18-(3-amino-propyl)-12-(1H-indol-3-ylmethyl)-13-methyl-6-trifluoromethyl-2-thia-10,13,16,19-tetraaza-tricyclo[19.4.0.0*3,8*]pentacosa-1(21),3,5,7,22,24-hexaene-11,14,17-trione] | 1 (≈ 1.36 µM) |
| CN1C(=O)[C@H](CCCCN)NC(=O)[C@H](CCCN)NCc2ccccc2Sc2ccccc2CNC(=O)[C@@H]1Cc1c[nH]c2cc(Cl)ccc12 [Example 15, (12S,15S,18S)-15-(4-Amino-butyl)-18-(3-amino-propyl)-12-(6-chloro-1H-indol-3-ylmethyl)-13-methyl-2-thia-10,13,16,19-tetraaza-tricyclo[19.4.0.0*3,8*]pentacosa-1(21),3,5,7,22,24-hexaene-11,14,17-trione] | 32 (≈ 45.4 µM) |
| CN1C(=O)[C@H](CCCCN)NC(=O)[C@H](CCCN)NCc2ccccc2Sc2ccccc2CNC(=O)[C@@H]1Cc1cn(C)c2cc(Cl)ccc12 [Example 16, (12S,15S,18S)-15-(4-Amino-butyl)-18-(3-amino-propyl)-12-(6-chloro-1-methyl-1H-indol-3-ylmethyl)-13-methyl-2-thia-10,13,16,19-tetraaza-tricyclo[19.4.0.0*3,8*]pentacosa-1(21),3,5,7,22,24-hexaene-11,14,17-trione] | 32 (≈ 44.5 µM) |
| CN1C(=O)[C@H](CCCCN)NC(=O)[C@H](CCCN)NCc2ccccc2Sc2ccc(Cl)cc2CNC(=O)[C@@H]1Cc1cn(C)c2ccccc12 [Example 17, (12S,15S,18S)-15-(4-Amino-butyl)-18-(3-amino-propyl)-6-chloro-13-methyl-12-(1-methyl-1H-indol-3-ylmethyl)-2-thia-10,13,16,19-tetraaza-tricyclo[19.4.0.0*3,8*]pentacosa-1(21),3,5,7,22,24-hexaene-11,14,17-trione] | 32 (≈ 44.5 µM) |
| CN1C(=O)[C@H](CCCCN)NC(=O)[C@H](CCCN)NCc2ccccc2Sc2ccc(Cl)cc2CNC(=O)[C@@H]1Cc1c[nH]c2cc(Cl)ccc12 [Example 18, (12S,15S,18S)-15-(4-Amino-butyl)-18-(3-amino-propyl)-6-chloro-12-(6-chloro-1H-indol-3-ylmethyl)-13-methyl-2-thia-10,13,16,19-tetraaza-tricyclo[19.4.0.0*3,8*]pentacosa-1(21),3,5,7,22,24-hexaene-11,14,17-trione] | 16 (≈ 21.7 µM) |
| CN1C(=O)[C@H](CCCCN)NC(=O)[C@H](CCCN)NCc2ccccc2Sc2ccc(Cl)cc2CNC(=O)[C@@H]1Cc1cn(C)c2cc(Cl)ccc12 [Example 19, (12S,15S,18S)-15-(4-Amino-butyl)-18-(3-amino-propyl)-6-chloro-12-(6-chloro-1-methyl-1H-indol-3-ylmethyl)-13-methyl-2-thia-10,13,16,19-tetraaza-tricyclo[19.4.0.0*3,8*]pentacosa-1(21),3,5,7,22,24-hexaene-11,14,17-trione] | 16 (≈ 21.3 µM) |
| C[C@@H]1NC(=O)[C@H](Cc2c[nH]c3ccccc23)N(C)C(=O)[C@H](CCCCN)NC(=O)[C@H](CCCN)NCc2ccccc2Sc2ccc(Cl)cc21 [Example 20, (9S,12S,15S,18S)-15-(4-Amino-butyl)-18-(3-amino-propyl)-6-chloro-12-(1H-indol-3-ylmethyl)-9,13-dimethyl-2-thia-10,13,16,19-tetraaza-tricyclo[19.4.0.0*3,8*]pentacosa-1(25),3,5,7,21,23-hexaene-11,14,17-trione] | 2 (≈ 2.78 µM) |

Now from value to compound:

| MIC [µg/mL] | SMILES |
| --- | --- |
| 1 (≈ 1.35 µM) | CN1C(=O)[C@H](CCCCN)NC(=O)[C@H](CCCN)NCc2ccccc2Sc2ccc(Cl)c(Cl)c2CNC(=O)[C@@H]1Cc1c[nH]c2ccccc12 [Example 21, (12S,15S,18S)-15-(4-Amino-butyl)-18-(3-amino-propyl)-6,7-dichloro-12-(1H-indol-3-ylmethyl)-13-methyl-2-thia-10,13,16,19-tetraaza-tricyclo[19.4.0.0*3,8*]pentacosa-1(25),3,5,7,21,23-hexaene-11,14,17-trione] |
| 32 (≈ 45.4 µM) | CN1C(=O)[C@H](CCCCN)NC(=O)[C@H](CCCN)NCc2ccccc2Sc2cccc(Cl)c2CNC(=O)[C@@H]1Cc1c[nH]c2ccccc12 [Example 22, (12S,15S,18S)-15-(4-Amino-butyl)-18-(3-amino-propyl)-7-chloro-12-(1H-indol-3-ylmethyl)-13-methyl-2-thia-10,13,16,19-tetraaza-tricyclo[19.4.0.0*3,8*]pentacosa-1(25),3,5,7,21,23-hexaene-11,14,17-trione] |
| 0.5 (≈ 0.677 µM) | CN1C(=O)[C@H](CCCCN)NC(=O)[C@H](CCCN)NCc2ccccc2Sc2c(Cl)ccc(Cl)c2CNC(=O)[C@@H]1Cc1c[nH]c2ccccc12 [Example 23, (12S,15S,18S)-15-(4-Amino-butyl)-18-(3-amino-propyl)-4,7-dichloro-12-(1H-indol-3-ylmethyl)-13-methyl-2-thia-10,13,16,19-tetraaza-tricyclo[19.4.0.0*3,8*]pentacosa-1(25),3,5,7,21,23-hexaene-11,14,17-trione] |
| 1 (≈ 1.29 µM) | CN1C(=O)[C@H](CCCCN)NC(=O)[C@H](CCCN)NCc2ccccc2Sc2c(Cl)ccc(C(F)(F)F)c2CNC(=O)[C@@H]1Cc1c[nH]c2ccccc12 [Example 24, (12S,15S,18S)-15-(4-Amino-butyl)-18-(3-amino-propyl)-4-chloro-12-(1H-indol-3-ylmethyl)-13-methyl-7-trifluoromethyl-2-thia-10,13,16,19-tetraaza-tricyclo[19.4.0.0*3,8*]pentacosa-1(25),3,5,7,21,23-hexaene-11,14,17-trione] |
| 1 (≈ 1.29 µM) | CN1C(=O)[C@H](CCCCN)NC(=O)[C@H](CCCN)NCc2ccccc2Sc2c(Cl)cc(C(F)(F)F)cc2CNC(=O)[C@@H]1Cc1c[nH]c2ccccc12 [Example 25, (12S,15S,18S)-15-(4-Amino-butyl)-18-(3-amino-propyl)-4-chloro-12-(1H-indol-3-ylmethyl)-13-methyl-6-trifluoromethyl-2-thia-10,13,16,19-tetraaza-tricyclo[19.4.0.0*3,8*]pentacosa-1(25),3,5,7,21,23-hexaene-11,14,17-trione] |
| 1 (≈ 1.38 µM) | CN1C(=O)[C@H](CCCCN)NC(=O)[C@H](CCCN)NCc2ccccc2Sc2c(Cl)ccc(F)c2CNC(=O)[C@@H]1Cc1c[nH]c2ccccc12 [Example 26, (12S,15S,18S)-15-(4-Amino-butyl)-18-(3-amino-propyl)-4-chloro-7-fluoro-12-(1H-indol-3-ylmethyl)-13-methyl-2-thia-10,13,16,19-tetraaza-tricyclo[19.4.0.0*3,8*]pentacosa-1(25),3,5,7,21,23-hexaene-11,14,17-trione] |
